Data as given in patent publication US10858339B2, “Aryl cyclopropyl-amino-isoquinolinyl amide compounds” (priority 2017, dated 2020).
Where a name gives a salt, the structure may show the parent alone.
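Throughout, for JAK2 activity: JAK2 kinase reaction run 75 min at room temperature, leftover ATP read by Kinase-Glo luminescence, 11-point dilution series in 2.5% DMSO, percent of inhibitor-free DMSO control.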

These compounds were tested against Rho Kinase (assay: ROCK kinase inhibition assay (Rho Kinase Activity, isoform not given)). Conditions: Table 15, mostly given as ranges.
Format: biochemical
Procedure: All compounds were initially prepared as 10 mM stocks in anhydrous dimethylsulfoxide (DMSO). A 20 μl aliquot of the 10 mM solutions was transferred to individual wells in column 1 of a 96-well polypropylene microtiter plate (Corning #3363) and diluted with DMSO to give a final compound concentration of 4 mM. Test compounds were then serially diluted 1:5 in DMSO for an 11-point concentration response and further diluted in the assay buffer bringing all compound concentrations to a final range of 100 μM to […] in 2.5% DMSO. The assay was performed in white 96-well, flat-bottom, half-area, non-binding assay plate (Corning #3642) in assay buffer consisting of 20 mM HEPES (pH 7.5), 10 mM MgCl2*6H2O, 100 μM sodium orthovanadate, 0.05% CHAPS and 0.1% bovine serum albumin. A 10 μL aliquot of compound from each well of the intermediate dilution plate and 20 μL of a 2× substrate/enzyme solution containing acceptor substrate (800 nM RSK2 peptide […] (SEQ ID NO: 1)), ROCK2 enzyme (10 nM), or ROCK1 enzyme, and 1,4-Dithiothreitol (DTT, 2 uM) were added to all wells. The reaction was initiated by the addition of 10 μL of 4× stock solution ATP (2 μM). Reactions were thoroughly mixed manually, covered and allowed to incubate at room temperature for 75 min. Protein kinase activity was quantitated using Promega's KINASE-GLO™ luminescent Kinase Assay Kit according to the manufacturer's directions. ATP concentrations remaining in Test wells following the termination of the enzymatic reaction were compared against control wells containing equivalent amounts of DMSO containing no inhibitor (CTRL). […] Percent of Control (POC) values were determined for each concentration of compound tested according to the equation: POC=((Test well value−BKG)/(CTRL−BKG))*100
IC50 values were converted to K; […]
Work on O=C(OCc1ccccn1)c1ccc([C@@H]2C[C@H]2C(=O)Nc2ccc3cnccc3c2)cc1 (racemic) [Example E99, trans-pyridin-2-ylmethyl 4-(2-(isoquinolin-6-ylcarbamoyl)cyclopropyl) benzoate] yielded a Ki of 0.0005 to 0.006 µM.
O=C(NCc1ccccn1)c1ccc([C@@H]2C[C@H]2C(=O)Nc2ccc3cnccc3c2)cc1 [Example E54, 4-((1R,2R)-2-(isoquinolin-6-ylcarbamoyl)cyclopropyl)-N-(pyridin-2-ylmethyl)benzamide] gave a Ki of 0.001 to 0.002 µM.
O=C(OCc1ccccc1)c1ccc(C2CC2C(=O)Nc2ccc3c(O)nccc3c2)cc1 (stereo not shown) [Example E100.1] was tested, and the Ki was 0.025 µM.
Compound O=C(NCc1cccnc1)c1ccc(C2CC2C(=O)Nc2ccc3cnccc3c2F)cc1 (stereo not shown) [Example E35] has a Ki of 0.0005 to 0.008 µM.
In the case of O=C(NCc1ccc(OC(F)(F)F)cc1)c1ccc(C2CC2C(=O)Nc2ccc3cnccc3c2)cc1 (stereo not shown) [Example E15.1], the Ki is reported as 0.065 to 0.11 µM.
O=C(NCc1cccnc1)c1ccc(C2CC(=O)N(c3ccc4cnccc4c3)C2)cc1 (stereo not shown) [Example E232, 4-(1-(isoquinolin-6-yl)-5-oxopyrrolidin-3-yl)-N-(pyridin-3-ylmethyl)benzamide] showed a Ki of 6.5 to 16 µM.
In the case of CC(C)(C)OC(=O)N1CCC(CNC(=O)c2ccc(C3CC3C(=O)Nc3ccc4cnccc4c3)cc2)C1 (stereo not shown) [Example E20.1], the Ki is reported as 0.0005 to 0.002 µM.
O=C(Nc1ccc2cnccc2c1)[C@@H]1C[C@H]1c1ccc(S(=O)(=O)N2CCNCC2)cc1 (racemic) [Example E248H, trans)-N-(isoquinolin-6-yl)-2-(4-(piperazin-1-ylsulfonyl)phenyl) cyclopropane-1-carboxamide dihydrochloride] showed a Ki of 0.03 to 0.05 µM.
O=C(Nc1ccc2cnccc2c1)c1ccc(C2CC2C(=O)Nc2ccc3cnccc3c2)cc1 (stereo not shown) [Example E18] showed a Ki of 0.0008 to 0.008 µM.
O=C(Nc1ccc2cnccc2c1)C1CC1c1ccc(COCc2ccccc2)cc1 (stereo not shown) showed a Ki of 0.35 to 0.6 µM.
O=C(OCc1ccccc1)c1ccc([C@@H]2C[C@H]2C(=O)Nc2ccc3cnccc3c2)cc1 [Example E115, benzyl 4-((1R,2R)-2-(isoquinolin-6-ylcarbamoyl)cyclopropyl)benzoate] gave a Ki of 0.04 to 0.075 µM.
O=C1CC(c2ccc(CNCc3ccccn3)cc2)CN1c1ccc2cnccc2c1 (stereo not shown) [Example E226] was tested, and the Ki was 1.9 to 9.3 µM.
With O=C(Nc1ccc2cnccc2c1)[C@@H]1C[C@H]1c1ccc(S(=O)(=O)NC[C@@H]2CCCNC2)cc1 [Example E248F, trans-N-(isoquinolin-6-yl)-2-(4-(N—(((R)-piperidin-3-yl)methyl)sulfamoyl)phenyl)-cyclopropane-1-carboxamide dihydrochloride] the Ki was 0.003 to 0.005 µM.
With O=C(NCc1cccs1)c1ccc(C2CC2C(=O)Nc2ccc3cnccc3c2)cc1 (stereo not shown) [Example E17] the Ki was 0.002 to 0.004 µM.
Compound O=C(Nc1ccc2cnccc2c1)[C@@H]1C[C@H]1c1ccc(I)cc1 (relative stereo) [Example E251, rel-(1R,2R)-2-(4-iodophenyl)-N-(isoquinolin-6-yl)cyclopropane-1-carboxamide] has a Ki of 0.15 to 0.4 µM.
For COc1ccc(CNC(=O)c2ccc(C3CC3C(=O)Nc3ccc4cnccc4c3)cc2)cc1 (stereo not shown) [Example E15], the Ki was 0.001 to 0.005 µM.
Work on CC(C)(C)OC(=O)N1CCCC(CNC(=O)c2ccc(C3CC3C(=O)Nc3ccc4cnccc4c3)cc2)C1 (stereo not shown) [Example E30.1] yielded a Ki of 0.01 to 0.037 µM.
Compound O=C(NCc1cccc(F)c1)OCc1ccc([C@@H]2C[C@H]2C(=O)Nc2ccc3cnccc3c2)cc1 (relative stereo) [Example E142, trans-4-(2-(isoquinolin-6-ylcarbamoyl)cyclopropyl)benzyl (3-fluorobenzyl)carbamate] has a Ki of 0.03 to 0.8 µM.
Compound O=C(Nc1ccc2cnccc2c1)[C@@H]1C[C@H]1c1ccc(S(=O)(=O)NCC2CCNCC2)cc1 (relative stereo) [Example E248D, trans-N-(isoquinolin-6-yl)-2-(4-(N-(piperidin-4-ylmethyl)sulfamoyl)phenyl) cyclopropane-1-carboxamide dihydrochloride] has a Ki of 0.005 to 0.009 µM.
O=C(O)c1ccc(C2CC(=O)N(c3ccc4cnccc4c3)C2)cc1 (stereo not shown) [Example E231, 4-(1-(isoquinolin-6-yl)-5-oxopyrrolidin-3-yl)benzoic acid] was tested, and the Ki was 34 to 68 µM.
O=C1CC(c2ccc(CNCC3CCNCC3)cc2)CN1c1ccc2cnccc2c1 (stereo not shown) [Example E227.2] gave a Ki of 0.3 to 0.6 µM.
In the case of O=C(NCC1CCCNC1)c1ccc(C2CC2C(=O)Nc2ccc3cnccc3c2)cc1 (stereo not shown) [Example E30.2], the Ki is reported as 0.001 to 0.008 µM.
O=C1CC(c2ccccc2)CN1c1ccc2cnccc2c1 (stereo not shown) gave a Ki of 0.65 to 1.35 µM.
For O=C(Nc1ccc2cncc(Cl)c2c1)[C@@H]1C[C@H]1c1ccc(S(=O)(=O)NC[C@H]2CCCNC2)cc1 [E250E*], the Ki was 0.009 to 0.011 µM.
O=C(NCC1CCNCC1)c1ccc(C2CC(=O)N(c3ccc4cnccc4c3)C2)cc1 (stereo not shown) [Example E234.2] gave a Ki of 1 to 1.25 µM.
For O=C(NCc1ccc(Cl)cc1)c1ccc(C2CC2C(=O)Nc2ccc3cnccc3c2)cc1 (stereo not shown) [Example E14], the Ki was 0.003 to 0.043 µM.
Work on CC(C)(C)OC(=O)c1ccc(C2CC(=O)N(c3ccc4cnccc4c3)C2)cc1F (stereo not shown) [Example E230.1] yielded a Ki of 9.3 µM.
For O=C(Nc1ccc2cnccc2c1)[C@@H]1C[C@H]1c1ccc(S(=O)(=O)Nc2ccccc2)cc1 (relative stereo) [Example E247A, trans-N-(isoquinolin-6-yl)-2-(4-(N-phenylsulfamoyl)phenyl) cyclopropane-1-carboxamide], the Ki was 0.07 to 0.35 µM.
O=C1CC(c2ccc(CNCc3cccnc3)cc2)CN1c1ccc2cnccc2c1 (stereo not shown) [Example E225, 1-(isoquinolin-6-yl)-4-(4-(((pyridin-3-ylmethyl)amino)methyl)phenyl)pyrrolidin-2-one] gave a Ki of 1.35 to 2.2 µM.
O=C(Nc1ccc2cnccc2c1)[C@@H]1C[C@H]1c1ccc(OCc2ccccc2)cc1 (relative stereo) [Example E210, trans-2-(4-(benzyloxy)phenyl)-N-(isoquinolin-6-yl)cyclopropane-1-carboxamide] showed a Ki of 0.06 to 0.3 µM.
In the case of O=C(NCc1ccc2ccncc2c1)c1ccc(C2CC2C(=O)Nc2ccc3cnccc3c2)cc1F (stereo not shown) [Example E195.1], the Ki is reported as 0.004 to 0.007 µM.
In the case of O=C(NCc1ccc(Cl)cc1)c1ccc(C2CC2C(=O)Nc2ccc3cnccc3c2)c(F)c1 (stereo not shown) [Example E195], the Ki is reported as 0.07 to 0.1 µM.
For CC(C)(C)OC(=O)N1CCC(CNCc2ccc(C3CC3C(=O)Nc3ccc4cnccc4c3)cc2)CC1 (stereo not shown) [Example E162.1], the Ki was 0.2 to 0.6 µM.
For C[C@@H]1OC(c2ccc(C3CC(=O)N(c4ccc5cnccc5c4)C3)cc2)O[C@H]1C (stereo partly drawn) [Example E223, 4-(4-((4S,5S)-4,5-dimethyl-1,3-dioxolan-2-yl)phenyl)-1-(isoquinolin-6-yl)pyrrolidin-2-one], the Ki was 8 to 15 µM.
CC(C)(C)OC(=O)c1ccc(C2CC(=O)N(c3ccc4cnccc4c3)C2)cc1 (stereo not shown) [Example E230, tert-butyl 4-(1-(isoquinolin-6-yl)-5-oxopyrrolidin-3-yl)benzoate] was tested, and the Ki was 14 to 25 µM.
In the case of O=C(Nc1ccc(Oc2ccccc2)cc1)c1ccc(C2CC2C(=O)Nc2ccc3cnccc3c2)cc1 (stereo not shown) [Example E39.1], the Ki is reported as 0.075 to 0.11 µM.
For Cc1nccc2cc(NC(=O)C3CC3c3ccc(C(=O)NCc4cccnc4)cc3)ccc12 (stereo not shown) [Example E36], the Ki was 0.075 to 0.2 µM.
O=Cc1ccc(C2CC(=O)N(c3ccc4cnccc4c3)C2)cc1 (stereo not shown) [Example E224, 4-(1-(isoquinolin-6-yl)-5-oxopyrrolidin-3-yl)benzaldehyde] was tested, and the Ki was 2.6 to 6.75 µM.
With O=C(Nc1ccc2cnccc2c1)[C@@H]1C[C@H]1c1ccc(CNCc2cccnc2)cc1 (relative stereo) [Example E160, trans-N-(isoquinolin-6-yl)-2-(4-(((pyridin-3-ylmethyl)amino)methyl)phenyl)cyclopropane-1-carboxamide] the Ki was 0.25 to 0.8 µM.
O=C(NCc1ccccc1)c1ccc([C@@H]2C[C@H]2C(=O)Nc2ccc3cnccc3c2F)cc1 [Example E115.1] was tested, and the Ki was 0.0001 to 0.001 µM.
With CC(C)(C)OC(=O)N1CCC(CNCc2ccc(C3CC(=O)N(c4ccc5cnccc5c4)C3)cc2)CC1 (stereo not shown) [Example E227.1] the Ki was 1.3 to 4 µM.
Work on O=C(Nc1ccc2cnccc2c1)C1CC1c1ccccc1 (stereo not shown) yielded a Ki of 0.005 to 0.013 µM.
O=C(NCc1ccncc1)c1cccc(C2CC2C(=O)Nc2ccc3cnccc3c2)c1 (stereo not shown) [Example E174] showed a Ki of 0.00015 to 0.0003 µM.
For O=C(Nc1ccc2cnccc2c1)C1CC1c1ccc(CNCC2CCNCC2)cc1 (stereo not shown) [Example E162.2], the Ki was 0.125 to 0.3 µM.
For O=C(OCc1ccccc1)c1cccc([C@@H]2C[C@H]2C(=O)Nc2ccc3cnccc3c2)c1 (relative stereo) [Example E170, trans-benzyl 3-(2-(isoquinolin-6-ylcarbamoyl)cyclopropyl)benzoate], the Ki was 0.65 to 1.25 µM.
Compound CC(C)(C)OC(=O)N1CCC(CNC(=O)c2ccc(C3CC3C(=O)Nc3ccc4cnccc4c3)cc2F)CC1 (stereo not shown) [Example E195.2] has a Ki of 0.0004 to 0.001 µM.
O=C(NCc1ccncc1)c1ccc(C2CC2C(=O)Nc2ccc3cnccc3c2)cc1 (stereo not shown) [Example E10] showed a Ki of 0.001 to 0.007 µM.

Each compound was assayed against JAK2 (Homo sapiens, UniProt O60674) (assay: JAK kinase assay, JAK2 enzyme). Conditions: not given.
JAK2, sequence (O60674 whole entry, species assumed): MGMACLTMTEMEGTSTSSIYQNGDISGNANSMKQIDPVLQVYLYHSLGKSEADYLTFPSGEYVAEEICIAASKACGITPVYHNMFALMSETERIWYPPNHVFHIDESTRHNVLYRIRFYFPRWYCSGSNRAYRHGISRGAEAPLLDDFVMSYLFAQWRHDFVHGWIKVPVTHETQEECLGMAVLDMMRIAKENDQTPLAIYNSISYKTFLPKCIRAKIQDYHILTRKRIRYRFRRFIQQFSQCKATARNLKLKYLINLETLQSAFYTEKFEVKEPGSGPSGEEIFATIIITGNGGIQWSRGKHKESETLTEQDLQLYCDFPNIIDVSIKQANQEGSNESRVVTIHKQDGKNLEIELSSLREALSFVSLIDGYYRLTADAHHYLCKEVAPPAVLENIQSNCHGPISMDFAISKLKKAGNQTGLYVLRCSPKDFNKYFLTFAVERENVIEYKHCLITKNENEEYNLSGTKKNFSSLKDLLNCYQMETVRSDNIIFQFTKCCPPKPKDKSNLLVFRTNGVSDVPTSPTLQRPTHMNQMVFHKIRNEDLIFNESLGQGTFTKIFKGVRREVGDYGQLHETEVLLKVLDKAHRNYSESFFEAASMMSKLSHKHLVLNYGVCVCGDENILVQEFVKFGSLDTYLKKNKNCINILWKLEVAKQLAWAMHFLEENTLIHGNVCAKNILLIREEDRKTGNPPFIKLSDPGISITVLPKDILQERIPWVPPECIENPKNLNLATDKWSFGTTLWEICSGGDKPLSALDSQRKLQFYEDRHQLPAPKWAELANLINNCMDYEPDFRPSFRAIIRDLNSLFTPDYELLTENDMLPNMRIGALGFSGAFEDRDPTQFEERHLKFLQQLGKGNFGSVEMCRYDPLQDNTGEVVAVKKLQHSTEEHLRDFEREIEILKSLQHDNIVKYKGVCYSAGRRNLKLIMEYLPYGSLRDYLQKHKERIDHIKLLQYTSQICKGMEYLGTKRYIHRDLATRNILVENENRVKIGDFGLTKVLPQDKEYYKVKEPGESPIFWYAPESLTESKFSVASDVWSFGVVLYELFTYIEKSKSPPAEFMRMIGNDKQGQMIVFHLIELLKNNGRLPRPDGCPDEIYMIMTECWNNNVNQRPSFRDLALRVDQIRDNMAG
Format: biochemical
For O=C(OCc1ccccc1)c1ccc(C2CC2C(=O)Nc2ccc3c(O)nccc3c2)cc1 (stereo not shown) [Example E100.1], the JAK2 activity was “inactive”.

Same assay, conditions: Table 15; in brackets in the activity cell; read-out: JAK2 activity
O=C(OCc1ccccn1)c1ccc([C@@H]2C[C@H]2C(=O)Nc2ccc3cnccc3c2)cc1 (racemic) [Example E99, trans-pyridin-2-ylmethyl 4-(2-(isoquinolin-6-ylcarbamoyl)cyclopropyl) benzoate] showed a Ki of 0.25 to 0.6 µM.
With O=C(NCc1ccccn1)c1ccc([C@@H]2C[C@H]2C(=O)Nc2ccc3cnccc3c2)cc1 [Example E54, 4-((1R,2R)-2-(isoquinolin-6-ylcarbamoyl)cyclopropyl)-N-(pyridin-2-ylmethyl)benzamide] the Ki was 0.015 to 0.09 µM.
Work on O=C(NCc1cccnc1)c1ccc(C2CC2C(=O)Nc2ccc3cnccc3c2F)cc1 (stereo not shown) [Example E35] yielded a Ki of 0.3 to 0.95 µM.
In the case of CC(C)(C)OC(=O)N1CCC(CNC(=O)c2ccc(C3CC3C(=O)Nc3ccc4cnccc4c3)cc2)C1 (stereo not shown) [Example E20.1], the Ki is reported as 0.7 to 2 µM.
With O=C(Nc1ccc2cnccc2c1)c1ccc(C2CC2C(=O)Nc2ccc3cnccc3c2)cc1 (stereo not shown) [Example E18] the Ki was 1 to 1.2 µM.
With O=C(OCc1ccccc1)c1ccc([C@@H]2C[C@H]2C(=O)Nc2ccc3cnccc3c2)cc1 [Example E115, benzyl 4-((1R,2R)-2-(isoquinolin-6-ylcarbamoyl)cyclopropyl)benzoate] the Ki was 3 to 5 µM.
O=C(Nc1ccc2cnccc2c1)[C@@H]1C[C@H]1c1ccc(I)cc1 (relative stereo) [Example E251, rel-(1R,2R)-2-(4-iodophenyl)-N-(isoquinolin-6-yl)cyclopropane-1-carboxamide] was tested, and the Ki was 0.5 to 0.8 µM.
